Data on 24 compounds can be found in patent US10562898B2, “Substituted benzenesulfonamides as inhibitors of alpha-4 beta-7 integrin activity” (EA PHARMA CO., LTD., priority 2016, dated 2020).

This assay deals with T1, α4β7 integrin (Homo sapiens, UniProt P13612+P26010).
T1 construct: a cell line RPMI-8866, which is known to express α4β7 integrin; endogenous in cells; host or cells: RPMI-8866 (human B cell line)
T1 sequence (P13612 34-1032): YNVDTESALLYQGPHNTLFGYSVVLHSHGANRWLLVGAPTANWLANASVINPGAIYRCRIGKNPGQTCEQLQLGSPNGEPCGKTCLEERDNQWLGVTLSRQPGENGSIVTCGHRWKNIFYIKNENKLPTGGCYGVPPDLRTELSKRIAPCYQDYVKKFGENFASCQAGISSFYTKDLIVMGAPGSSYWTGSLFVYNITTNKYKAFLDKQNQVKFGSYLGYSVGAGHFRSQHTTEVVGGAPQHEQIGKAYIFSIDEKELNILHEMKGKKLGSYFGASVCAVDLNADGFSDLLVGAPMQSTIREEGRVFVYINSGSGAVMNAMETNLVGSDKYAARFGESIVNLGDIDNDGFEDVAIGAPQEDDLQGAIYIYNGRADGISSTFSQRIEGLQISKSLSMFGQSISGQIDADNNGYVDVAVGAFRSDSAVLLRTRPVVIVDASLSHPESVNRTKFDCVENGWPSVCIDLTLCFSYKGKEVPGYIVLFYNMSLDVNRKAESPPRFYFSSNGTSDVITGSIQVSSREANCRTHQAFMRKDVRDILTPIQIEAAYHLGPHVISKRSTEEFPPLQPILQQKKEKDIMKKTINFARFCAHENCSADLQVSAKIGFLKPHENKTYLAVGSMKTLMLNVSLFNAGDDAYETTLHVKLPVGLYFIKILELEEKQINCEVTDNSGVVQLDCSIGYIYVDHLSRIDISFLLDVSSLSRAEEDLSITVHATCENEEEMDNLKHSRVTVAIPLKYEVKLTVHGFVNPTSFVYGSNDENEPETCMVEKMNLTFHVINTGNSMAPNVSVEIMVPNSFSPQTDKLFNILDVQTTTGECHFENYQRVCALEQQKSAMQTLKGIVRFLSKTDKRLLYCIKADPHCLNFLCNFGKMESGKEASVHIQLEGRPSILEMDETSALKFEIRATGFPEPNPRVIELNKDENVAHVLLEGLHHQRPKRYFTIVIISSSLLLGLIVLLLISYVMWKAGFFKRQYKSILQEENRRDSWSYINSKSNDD
T1 sequence (P26010 20-798): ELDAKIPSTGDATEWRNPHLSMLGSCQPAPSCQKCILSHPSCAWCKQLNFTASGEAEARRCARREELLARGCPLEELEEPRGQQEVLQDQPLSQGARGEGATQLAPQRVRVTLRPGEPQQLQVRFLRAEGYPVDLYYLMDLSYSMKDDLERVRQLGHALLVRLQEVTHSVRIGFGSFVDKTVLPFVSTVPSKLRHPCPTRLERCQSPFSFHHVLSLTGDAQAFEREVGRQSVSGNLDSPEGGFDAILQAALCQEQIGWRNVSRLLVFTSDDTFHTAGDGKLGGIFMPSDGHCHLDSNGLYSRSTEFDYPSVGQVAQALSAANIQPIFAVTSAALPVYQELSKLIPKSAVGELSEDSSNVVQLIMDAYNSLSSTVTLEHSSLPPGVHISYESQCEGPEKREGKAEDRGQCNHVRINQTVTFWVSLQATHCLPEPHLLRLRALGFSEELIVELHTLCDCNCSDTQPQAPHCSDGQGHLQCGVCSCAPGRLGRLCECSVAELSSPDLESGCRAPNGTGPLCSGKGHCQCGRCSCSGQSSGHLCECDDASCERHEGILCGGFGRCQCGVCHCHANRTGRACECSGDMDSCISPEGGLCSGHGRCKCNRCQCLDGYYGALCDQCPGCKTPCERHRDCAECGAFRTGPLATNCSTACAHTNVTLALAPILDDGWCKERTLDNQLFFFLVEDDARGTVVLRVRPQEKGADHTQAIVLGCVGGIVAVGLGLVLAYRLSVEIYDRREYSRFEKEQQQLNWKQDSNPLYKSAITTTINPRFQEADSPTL
As to the kind of experiment: MAdCAM-1/α4β7 integrin binding inhibitory activity evaluation test in presence of serum. The assay is classed as cell-based. Particulars: RPMI-8866 cells, recombinant mouse MAdCAM-1/Fc, 50% human serum; read-out: α4β7 Serum Added IC50. As to the method:
(3) MAdCAM-1/α4β7 Integrin Binding Inhibitory Activity Evaluation Test in Presence of Serum (1)
Each test substance was measured in terms of an ability to inhibit the MAdCAM-1 binding of a human B cell line, namely, a cell line RPMI-8866, which is known to express α4β7 integrin.
A solution of recombinant mouse MAdCAM-1/Fc (R&D Systems, Inc.) (1 μg/mL) diluted with a buffer A (carbonate buffer, pH 9.6) was added in an amount of 50 μL/well to a 96-well microtiter plate, followed by incubation at 4° C. overnight. After the plate was washed with PBS once, 150 μL/well of Block Ace (Snow Brand Milk Products Co., Ltd.) was added, followed by incubation at room temperature for 2 hours. After removal, the plate was washed with PBS once.
Then, 100 μL of the RPMI-8866 cells (2×10^6 cells/mL) and 100 of the test substance at each of various concentrations diluted with a binding buffer (DMEM containing 40 mM HEPES, 0.2% BSA, and 4 mM MnCl2) were added to the plate coated with the MAdCAM-1/Fc (5×10^5 cells/well) such that 50% human serum was contained at the final concentration. Then, incubation was allowed to proceed at 30° C. for 15 to 60 minutes. After the cells were bound to the wells, the plate was washed with PBS to remove unbound cells. A buffer C (PBS containing 1.5% Triton X-100) was added in an amount 50 μL/well to the plate to lyse the bound RPMI-8866 cells. After 30 μL of a substrate buffer (Promega, CytoTox 96 Non-Radioactive Cytotoxicity Assay) was added to 30 μL of the cell lysate, a reaction was allowed to proceed at room temperature in the dark for 30 minutes. After 30 μL of a stop solution (Promega, CytoTox 96 Non-Radioactive Cytotoxicity Assay) was added to each, and then an absorbance at 490 nm was measured using a plate reader. The absorbance obtained here represents a detection result of an activity of lactate dehydrogenase (LDH) eluted in the supernatant of each well, that is, the absorbance is proportional to the number of RPMI-8866 cells bound to the MAdCAM-1 and thus remaining on the plate. The test was performed in duplicate. Provided that the absorbance of the well containing no test substance was 100%, a cell binding rate with the test substance at each of the various concentrations was figured out, and a concentration IC50 which brought about 50% binding inhibition was calculated.
Consider `Cc1c(C)n(C)c(=O)n(-c2ccc(C[C@H](NC(=O)c3cc(F)c(NS(=O)(=O)c4ccc(NC(=O)C5CCOCC5)cc4)cc3F)C(=O)O)cc2)c1=O` [Compound A15], for which the IC50 – broadly, the concentration needed to halve the response being measured – came out at 14 nM.

On to `Cc1cn(C)c(=O)n(-c2ccc(C[C@H](NC(=O)c3cc(F)c(NS(=O)(=O)c4ccc(NC(=O)C(C)C)cc4)cc3F)C(=O)O)cn2)c1=O` [Compound A71], for which the IC50 worked out at 43 nM.

As for `Cc1cn(C)c(=O)n(-c2ccc(C[C@H](NC(=O)c3cc(F)c(NS(=O)(=O)c4ccc(NC(=O)C#CC(C)(C)C)cc4)cc3F)C(=O)O)cn2)c1=O` [Compound A68], the IC50 was 33 nM.

As to `Cn1c(=O)n(-c2ccc(C[C@H](NC(=O)c3cc(F)c(NS(=O)(=O)c4ccc(NC(=O)C(C)(C)C)cc4)cc3F)C(=O)O)cc2)c(=O)c2ccncc21` [Compound A1, (2S)-2-[[4-[[4-(2,2-dimethylpropanoylamino)phenyl]sulfonylamino]-2,5-difluoro-benzoyl]amino]-3-[4-(1-methyl-2,4-dioxo-pyrido[3,4-d]pyrimidin-3-yl)phenyl]propanoic acid], the IC50 amounted to 10 nM.

Regarding `Cc1c(C)n(C)c(=O)n(-c2ccc(C[C@H](NC(=O)c3cc(F)c(NS(=O)(=O)c4cccc(NC(=O)C(C)(C)C)c4)cc3F)C(=O)O)cc2)c1=O` [Compound A49], the IC50 stood at 45 nM.

In the case of `Cn1c(=O)n(-c2ccc(C[C@H](NC(=O)c3cc(F)c(NS(=O)(=O)c4ccc(NC(=O)C5(c6ccccc6)CC5)cc4)cc3F)C(=O)O)cn2)c(=O)c2ccncc21` [Compound A29], the IC50 was determined as 54 nM.

As for `CCC(CC)C(=O)Nc1ccc(S(=O)(=O)Nc2cc(F)c(C(=O)N[C@@H](Cc3ccc(-n4c(=O)c(C)c(C)n(C)c4=O)cc3)C(=O)O)cc2F)cc1` [Compound A4], the IC50 was 16 nM.

For the compound `CN1CCc2c(n(C)c(=O)n(-c3ccc(C[C@H](NC(=O)c4cc(F)c(NS(=O)(=O)c5ccc(NC(=O)C(C)(C)C)cc5)cc4F)C(=O)O)cc3)c2=O)C1` [Compound A41], the IC50 came to 1.9 nM.

For the compound `Cc1cn(C)c(=O)n(-c2ccc(C[C@H](NC(=O)c3cc(F)c(NS(=O)(=O)c4ccc(NC(=O)C5(C#N)CC5)cc4)cc3F)C(=O)O)cn2)c1=O` [Compound A60], the IC50 was 52 nM.

With `COC1(C(=O)Nc2ccc(S(=O)(=O)Nc3cc(F)c(C(=O)N[C@@H](Cc4ccc(-n5c(=O)c(C)c(C)n(C)c5=O)cc4)C(=O)O)cc3F)cc2)CC1` [Compound A17], the half-maximal inhibitory concentration (IC50) is 67 nM.

Turning to `Cc1cn(C)c(=O)n(-c2ccc(C[C@H](NC(=O)c3cc(F)c(NS(=O)(=O)c4ccc(NC(=O)C(C)(C)C)cc4)cc3F)C(=O)O)cc2)c1=O` [Compound A37], the IC50 was 6.6 nM.

In the case of `Cn1c2c(c(=O)n(-c3ccc(C[C@H](NC(=O)c4cc(F)c(NS(=O)(=O)c5ccc(NC(=O)C(C)(C)C)cc5)cc4F)C(=O)O)nc3)c1=O)CCCC2` [Compound A47], the IC50 amounted to 15 nM.

Turning to `Cc1c(C)n(C(C)C)c(=O)n(-c2ccc(C[C@H](NC(=O)c3cc(F)c(NS(=O)(=O)c4ccc(NC(=O)C(C)(C)C)cc4)cc3F)C(=O)O)cc2)c1=O` [Compound A48], the 50% inhibitory concentration (IC50) was 22 nM.

Take `Cn1c2c(c(=O)n(-c3ccc(C[C@H](NC(=O)c4cc(F)c(NS(=O)(=O)c5ccc(NC(=O)C(C)(C)C)cc5)cc4F)C(=O)O)cn3)c1=O)COCC2` [Compound A44]: the IC50 worked out at 2.6 nM.

As to `CN1C(=O)N(c2ccc(S(=O)(=O)Nc3cc(F)c(C(=O)N[C@@H](Cc4ccc(-n5c(=O)c6ccncc6n(C)c5=O)nc4)C(=O)O)cc3F)cc2)C(=O)C1(C)C` [Compound A38], the IC50 amounted to 20 nM.

Regarding `Cc1c(C)n(C)c(=O)n(-c2ccc(C[C@H](NC(=O)c3cc(F)c(NS(=O)(=O)c4ccc(NC(=O)C(C)(C)C)cn4)cc3F)C(=O)O)cn2)c1=O` [Compound A32], the IC50 was 3 nM.

Turning to `Cn1c(=O)n(-c2ccc(C[C@H](NC(=O)c3cc(F)c(NS(=O)(=O)c4ccc(NC(=O)NC(C)(C)C)cc4)cc3F)C(=O)O)cc2)c(=O)c2ccncc21` [Compound A5], the IC50 turned out to be 70 nM.

For the compound `Cc1c(C)n(C)c(=O)n(-c2ccc(C[C@H](NC(=O)c3cc(F)c(NS(=O)(=O)c4cc(NC(=O)C(C)(C)C)cs4)cc3F)C(=O)O)cc2)c1=O` [Compound A11], the IC50 was found to be 38 nM.

With `Cn1ccc(=O)n(-c2ccc(C[C@H](NC(=O)c3cc(F)c(NS(=O)(=O)c4ccc(NC(=O)C(C)(C)C(F)(F)F)cc4)cc3F)C(=O)O)cn2)c1=O` [Compound A57], the IC50 is 14 nM.

Regarding `CC(=O)Nc1ccc(S(=O)(=O)Nc2cc(F)c(C(=O)N[C@@H](Cc3ccc(-n4c(=O)c5ccncc5n(C)c4=O)cc3)C(=O)O)cc2F)cc1` [Compound A2], the 50% inhibitory concentration (IC50) turned out to be 36 nM.

For `Cn1c2c(c(=O)n(-c3ccc(C[C@H](NC(=O)c4cc(F)c(NS(=O)(=O)c5ccc(NC(=O)C(C)(C)C)cc5)cc4F)C(=O)O)cc3)c1=O)CCOC2` [Compound A27], the IC50 turned out to be 2.4 nM.

With `COc1cc2c(=O)n(-c3ccc(C[C@H](NC(=O)c4cc(F)c(NS(=O)(=O)c5ccc(NC(=O)C(C)(C)C)cc5)cc4F)C(=O)O)cc3)c(=O)n(C)c2cn1` [Compound A36], the IC50 worked out at 18 nM.

Take `CN1CCC(=O)N(c2ccc(C[C@H](NC(=O)c3cc(F)c(NS(=O)(=O)c4ccc(NC(=O)C(C)(C)C)cc4)cc3F)C(=O)O)cn2)C1=O` [Compound A75, (2S)-2-[2,5-difluoro-4-[(4-pivalamidophenyl)sulfonamide]benzamido]-3-[6-(3-methyl-2,6-dioxotetrahydropyrimidin-1(2H)-yl)pyridin-3-yl]propanoic acid]: the IC50 is 16 nM.

Consider `Cn1c2c(c(=O)n(-c3ccc(C[C@H](NC(=O)c4cc(F)c(NS(=O)(=O)c5ccc(NC(=O)C(C)(C)C)cc5)cc4F)C(=O)O)cn3)c1=O)CCOC2` [Compound A40], for which the IC50 was 4.3 nM.
